Results taken from patent publication US20240287138A1, “CYCLIC PEPTIDES FOR INHIBITING TNF RECEPTOR 1 ACTIVITY” (Merck Sharp & Dohme LLC, priority 2023, published 2024).
Numbered stars: 1 amine (or outer) side, 2 acyl side, 3 side chain; on linkers, the order of the positions; unused ones are H or OH. Square brackets hold non-standard residues; d marks the D form. Peptide text beside a SMILES is read from it. Trp(βS-Me,7-OMe) = COc1cccc2c([C@H](C)[C@H](N)C(=O)O)c[nH]c12; dPro(trans-4-NMe2) = CN(C)[C@@H]1CN[C@@H](C(=O)O)C1; Trp(7-Br) = N[C@@H](Cc1c[nH]c2c(Br)cccc12)C(=O)O; Trp(7-CN) = N#Cc1cccc2c(C[C@H](N)C(=O)O)c[nH]c12; Phe(3-CONH2) = NC(=O)c1cccc(C[C@H](N)C(=O)O)c1; Phe(4-CONH2) = NC(=O)c1ccc(C[C@H](N)C(=O)O)cc1; Phe(4-COOH) = N[C@@H](Cc1ccc(C(=O)O)cc1)C(=O)O; Trp(7-aza) = N[C@@H](Cc1c[nH]c2ncccc12)C(=O)O; dPro(trans-4-F) = O=C(O)[C@H]1C[C@H](F)CN1; Pip(5R-OH) = O=C(O)[C@@H]1CC[C@@H](O)CN1; X1 = O=C([C@@H]1CC[C@H](N[*:1])C1)[*:2]; X31 = O=C(CN(CCc1nnco1)[*:1])[*:2]; Pip(4-aza) = O=C(O)[C@@H]1CNCCN1; 4Pal = N[C@@H](Cc1ccncc1)C(=O)O; dHyp = O=C(O)[C@H]1C[C@H](O)CN1; aThr = C[C@H](O)[C@H](N)C(=O)O; Ahp(2) = CCCCC[C@H](N)C(=O)O; αMeS = C[C@](N)(CO)C(=O)O; Nle = CCCC[C@H](N)C(=O)O; Sar = CNCC(=O)O

How the values were obtained:
[1] = molecular target: T1, human soluble TNFR1 (sTNFR1) (Homo sapiens, UniProt P19438); experiment: Human sTNFR1-peptide displacement assay (LanthaScreen Eu TR-FRET binding assay)
T1 construct: made in house; host or cells: Sf21 (baculovirus)
T1 sequence (P19438 with tags, fused parts or gaps): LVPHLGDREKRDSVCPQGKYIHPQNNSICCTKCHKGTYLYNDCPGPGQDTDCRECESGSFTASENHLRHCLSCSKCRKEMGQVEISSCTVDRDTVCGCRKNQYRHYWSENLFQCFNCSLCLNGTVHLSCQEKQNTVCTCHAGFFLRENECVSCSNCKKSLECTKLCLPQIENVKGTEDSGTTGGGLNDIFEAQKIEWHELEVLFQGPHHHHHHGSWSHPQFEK
In short: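 Readout is the 665/615 nm TR-FRET ratio (Eu anti-His donor, streptavidin-Alexa647 acceptor), normalized to DMSO and saturating displacer, fit by Morrison-based five-parameter logistic for Kd^app. His-tagged sTNFR1 (1-211) prebound to 100 nM biotinylated peptide SEQ ID NO.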

[2] = molecular target: T2, human TNFR2 ECD protein (Homo sapiens, UniProt P20333); experiment: SPR off-target binding (selectivity) to human TNFR2 ECD
T2 construct: HRV 3C protease cleavage site (C); 6His (C, cleaved yes); made in house; host or cells: Sf21 insect cells (baculovirus), secreted
T2 sequence (P20333 23-257): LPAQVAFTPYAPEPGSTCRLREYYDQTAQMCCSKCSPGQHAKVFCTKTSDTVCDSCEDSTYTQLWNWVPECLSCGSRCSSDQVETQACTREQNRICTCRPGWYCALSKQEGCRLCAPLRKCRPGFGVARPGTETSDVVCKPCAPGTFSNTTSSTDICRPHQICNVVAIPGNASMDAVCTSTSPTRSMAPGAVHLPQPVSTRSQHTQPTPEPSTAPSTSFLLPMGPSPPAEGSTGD
In short: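 Read-out: kon, koff and derived affinity from SPR response units. Human TNFR1 and TNFR2 ECD, Avi-tag biotinylated with BirA, captured on a streptavidin surface; peptides injected under laminar flow in HEPES-saline with EDTA, P20 and 2% DMSO.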

| SMILES | Kd [1] [nM] | Kd [2] [nM] |
| --- | --- | --- |
| CCCCC[C@@H]1NC(=O)[C@@H]2CC[C@@H](C2)NC(=O)[C@H]([C@@H](C)c2c[nH]c3c(OC)cccc23)NC(=O)CN(C)C(=O)[C@H](Cc2cccc(C(N)=O)c2)NC(=O)[C@H](Cc2ccc(C(N)=O)cc2)NC(=O)[C@](C)(CO)NC(=O)[C@H](Cc2c[nH]c3c(Br)cccc23)NC(=O)[C@H](Cc2ccc(C(=O)O)cc2)NC(=O)[C@H](CC(N)=O)NC(=O)[C@H]2C[C@H](O)CN2C(=O)[C@H](Cc2c[nH]c3ccccc23)NC(=O)[C@@H]2CNCCN2C(=O)[C@H](Cc2ccncc2)NC1=O [SEQ ID NO. 109] (cyclo([4Pal][Pip(4-aza)]W[dHyp]N[Phe(4-COOH)][Trp(7-Br)][αMeS][Phe(4-CONH2)][Phe(3-CONH2)][Sar][Trp(βS-Me,7-OMe)][X1][Ahp(2)])) | 0.11 | > 1000 |
| CCCC[C@@H]1NC(=O)[C@@H]2CC[C@@H](C2)NC(=O)[C@H]([C@@H](C)c2c[nH]c3c(OC)cccc23)NC(=O)CN(C)C(=O)[C@H](Cc2ccc(C(N)=O)cc2)NC(=O)[C@H](Cc2ccc(C(N)=O)cc2)NC(=O)[C@](C)(CO)NC(=O)[C@H](Cc2c[nH]c3c(C#N)cccc23)NC(=O)[C@H](Cc2ccc(C(=O)O)cc2)NC(=O)[C@H](CC(N)=O)NC(=O)[C@H]2C[C@H](F)CN2C(=O)[C@H](Cc2c[nH]c3ccccc23)NC(=O)[C@@H]2CC[C@@H](O)CN2C(=O)[C@H](Cc2ccncc2)NC1=O [SEQ ID NO. 114] (cyclo([4Pal][Pip(5R-OH)]W[dPro(trans-4-F)]N[Phe(4-COOH)][Trp(7-CN)][αMeS][Phe(4-CONH2)][Phe(4-CONH2)][Sar][Trp(βS-Me,7-OMe)][X1][Nle])) | 0.02 | > 1000 |
| CCCC[C@@H]1NC(=O)[C@@H]2CC[C@@H](C2)NC(=O)[C@H]([C@@H](C)c2c[nH]c3c(OC)cccc23)NC(=O)CN(C)C(=O)[C@H](Cc2ccc(C(=O)O)cc2)NC(=O)[C@H](Cc2ccc(C(N)=O)cc2)NC(=O)[C@](C)(CO)NC(=O)[C@H](Cc2c[nH]c3c(C#N)cccc23)NC(=O)[C@H](Cc2ccncc2)NC(=O)[C@H](CC(N)=O)NC(=O)CN(CCc2nnco2)C(=O)[C@H](Cc2c[nH]c3ncccc23)NC(=O)[C@@H]2CC[C@@H](O)CN2C(=O)[C@H](Cc2ccncc2)NC1=O [SEQ ID NO. 121] (cyclo([4Pal][Trp(7-CN)][αMeS][Phe(4-CONH2)][Phe(4-COOH)][Sar][Trp(βS-Me,7-OMe)][X1][Nle][4Pal][Pip(5R-OH)][Trp(7-aza)][X31]N)) | 0.07 | > 1000 |
| CCCC[C@@H]1NC(=O)[C@@H]2CC[C@@H](C2)NC(=O)[C@H]([C@@H](C)c2c[nH]c3c(OC)cccc23)NC(=O)CN(C)C(=O)[C@H](Cc2ccc(C(N)=O)cc2)NC(=O)[C@H](Cc2ccc(C(N)=O)cc2)NC(=O)[C@](C)(CO)NC(=O)[C@H](Cc2c[nH]c3c(C#N)cccc23)NC(=O)[C@H](Cc2ccc(C(=O)O)cc2)NC(=O)[C@H]([C@H](C)O)NC(=O)[C@H]2C[C@H](O)CN2C(=O)[C@H](Cc2c[nH]c3ncccc23)NC(=O)[C@@H]2CC[C@@H](O)CN2C(=O)[C@H](Cc2ccncc2)NC1=O [SEQ ID NO. 122] (cyclo([4Pal][Pip(5R-OH)][Trp(7-aza)][dHyp][aThr][Phe(4-COOH)][Trp(7-CN)][αMeS][Phe(4-CONH2)][Phe(4-CONH2)][Sar][Trp(βS-Me,7-OMe)][X1][Nle])) | 0.08 | > 1000 |
| CCCCC[C@@H]1NC(=O)[C@@H]2CC[C@@H](C2)NC(=O)[C@H]([C@@H](C)c2c[nH]c3c(OC)cccc23)NC(=O)CN(C)C(=O)[C@H](Cc2cccc(C(N)=O)c2)NC(=O)[C@H](Cc2ccc(C(N)=O)cc2)NC(=O)[C@](C)(CO)NC(=O)[C@H](Cc2c[nH]c3c(C#N)cccc23)NC(=O)[C@H](Cc2ccc(C(=O)O)cc2)NC(=O)[C@H](CC(N)=O)NC(=O)[C@H]2C[C@H](N(C)C)CN2C(=O)[C@H](Cc2c[nH]c3ccccc23)NC(=O)[C@@H]2CC[C@@H](O)CN2C(=O)[C@H](Cc2ccncc2)NC1=O [SEQ ID NO. 128] (cyclo([4Pal][Pip(5R-OH)]W[dPro(trans-4-NMe2)]N[Phe(4-COOH)][Trp(7-CN)][αMeS][Phe(4-CONH2)][Phe(3-CONH2)][Sar][Trp(βS-Me,7-OMe)][X1][Ahp(2)])) | 0.09 | > 1000 |
